The record followed here is US11078207B2, “Substituted pyrrolo[2,3-d]pyrimidines as HER2 inhibitors” (TAIHO PHARMACEUTICAL CO., LTD., priority 2019, dated 2021).

In one data set the target is Ba/F3-HER2insYVMA cells (Homo sapiens, UniProt P04626, DUP772-775, cells depend on it). Description: Growth inhibitory activity against HER2 exon 20 insertion mutant expressing cell line. The class given is cell-based, mouse. The note with it: 3 days, CellTiter-Glo 2.0, read-out: HER2ex20insYVMA cell growth inhibitory activity IC50 value. In general terms: ATP-based viability assays read luminescence as a measure of living cells.
Chain of Ba/F3-HER2insYVMA cells (P04626 with tags, fused parts or gaps DUP772-775): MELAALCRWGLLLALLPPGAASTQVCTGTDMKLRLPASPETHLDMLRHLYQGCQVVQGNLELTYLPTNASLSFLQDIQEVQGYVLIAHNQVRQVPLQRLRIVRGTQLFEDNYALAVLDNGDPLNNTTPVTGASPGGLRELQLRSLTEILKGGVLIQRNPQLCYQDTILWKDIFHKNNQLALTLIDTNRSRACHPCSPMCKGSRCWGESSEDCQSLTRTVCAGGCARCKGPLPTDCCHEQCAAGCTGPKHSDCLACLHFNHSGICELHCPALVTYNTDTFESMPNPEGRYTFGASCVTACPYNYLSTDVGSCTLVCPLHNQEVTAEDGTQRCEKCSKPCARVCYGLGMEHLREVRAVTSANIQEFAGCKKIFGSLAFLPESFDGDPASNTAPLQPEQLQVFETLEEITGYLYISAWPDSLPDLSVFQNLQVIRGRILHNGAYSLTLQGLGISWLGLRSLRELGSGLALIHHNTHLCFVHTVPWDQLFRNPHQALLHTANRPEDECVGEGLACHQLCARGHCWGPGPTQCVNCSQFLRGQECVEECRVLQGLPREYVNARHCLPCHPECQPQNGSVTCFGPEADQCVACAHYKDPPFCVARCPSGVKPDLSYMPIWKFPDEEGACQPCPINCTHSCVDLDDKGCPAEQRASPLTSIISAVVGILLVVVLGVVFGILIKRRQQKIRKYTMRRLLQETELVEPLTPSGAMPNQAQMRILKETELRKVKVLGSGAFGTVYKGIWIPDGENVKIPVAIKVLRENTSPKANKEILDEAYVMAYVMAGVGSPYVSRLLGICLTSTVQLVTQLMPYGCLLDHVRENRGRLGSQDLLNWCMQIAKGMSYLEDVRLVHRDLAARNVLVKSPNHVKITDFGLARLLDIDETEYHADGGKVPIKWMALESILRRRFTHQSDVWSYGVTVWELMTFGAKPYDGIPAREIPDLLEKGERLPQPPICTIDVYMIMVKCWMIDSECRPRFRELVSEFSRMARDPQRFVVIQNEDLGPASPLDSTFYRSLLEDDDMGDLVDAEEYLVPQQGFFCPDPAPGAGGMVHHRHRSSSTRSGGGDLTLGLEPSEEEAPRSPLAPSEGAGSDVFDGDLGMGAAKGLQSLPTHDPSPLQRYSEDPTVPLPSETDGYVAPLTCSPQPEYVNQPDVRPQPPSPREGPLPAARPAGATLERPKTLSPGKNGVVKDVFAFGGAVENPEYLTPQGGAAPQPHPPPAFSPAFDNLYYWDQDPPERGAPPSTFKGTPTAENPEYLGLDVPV

Data set [1] in a line: Evaluation of brain penetration properties. The class given is in vivo, BALB/cA mice. The note with it: mouse, 0.5 hours after oral 50 mg/kg/day, BALB/cA mice; for Kp at 0.5 h: read-out: Kp value (Compound concentration in brain/plasma).
Data set [2] is described as follows: Body weight change in NCI-N87-Luc direct brain transplantation models. It is filed as in vivo, nude mouse (BALB/cAJcl-nu/nu). To be noted: oral 25 mg/kg/day, Days 1-21, nude mice. The protocol: (§1) The test compound was orally administered to the mice once a day, every day, for 21 days from the following day of the grouping (Days 1-21).
(§2) For judgment of the presence or absence of effects, the value (Log 10) obtained by logarithmic transformation of the total flux on the judgment date was used. The test compound was administered to the mice at a dose of 25 mg/kg/day in Example 2 and Example 11, whereas it was administered at a dose of 50 mg/kg/day in Example 12.
(§3) The value obtained by logarithmic transformation (Log 10) of the total flux on Day 22 in each group was analyzed by a Dunnett test or a Student-t test.

Data set [3] in a line: Evaluation of oral absorbability. The class given is in vivo, BALB/cA mice. The note with it: mouse; plasma, oral 50 mg/kg/day, BALB/cA mice.
A further data set deals with NCI-N87-Luc. Put plainly: Antitumor effect (in vivo) on direct brain transplantation models of NCI-N87-Luc. On the set-up: species or system nude mouse (BALB/cAJcl-nu/nu). To be noted: Days 1-21.
Source text: In order to confirm the antitumor effects of a test compound on direct brain transplantation models, NCI-N87-Luc, which was obtained by introducing a luciferase gene into NCI-N87 that was a human stomach cancer tumor cell line purchased from American Type Culture Collection, was used.
The NCI-N87-Luc cells were re-suspended in PBS in a concentration of 6.25×10^7 cells/mL.
Using a mouse ear bar, a nude mouse with 6 to 7 weeks old (BALB/cAJcl-nu/nu, CLEA Japan, Inc.) was fixed in a brain stereotaxic apparatus, and the skin on the upper brain portion was disinfected with alcohol cotton and was then excised with a surgical knife.
A microdrill was used to drill a hole in the skull, and then, using a needle, a manipulator, and a syringe pump, 4 μL of the cell suspension was transplanted into the brain at a rate of 0.8 μL/min.
As a reference of the amount of brain tumor, approximately 3 weeks after the transplantation, Total Flux (Photon/sec) was measured in all of the survival cases, using IVIS (PerkinElmer, Inc., model: Lumina II). Based on the obtained results, 6 animals were assigned to each group, using the grouping program of MiSTAT (Ver. 2.00).
as §1, §2
A graph was prepared with the value obtained by logarithmic transformation (Log 10) of the average total flux of each group as a vertical axis, and with the number of days (Day) after the transplantation as a horizontal axis. The transition of the total flux over time in the drug administration period was observed. […]
as §3

The mark [4] stands for this setting: brain, read-out: Compound concentration in brain.
Where [5] appears, read: plasma, read-out: Compound concentration in plasma.

Read-outs that look alike come from different tables or passages of the source.

What is called AUC(0-t) is the area under the concentration-time curve up to a stated or last time point. Turning to `C=CC(=O)N1C[C@H](n2c(C#CC)c(C(=O)N[C@H](C)c3ccccc3)c3c(N)ncnc32)C[C@@H]1C` [Example 2, 7-((3R,5S)-1-acryloyl-5-methylpyrrolidin-3-yl)-4-amino-N—((R)-1-phenylethyl)-6-(prop-1-yn-1-yl)-7H-pyrrolo[2,3-d]pyrimidine-5-carboxamide], the GI50 on Ba/F3-HER2insYVMA cells was 0.012 µM. Further, the figures for the concentration at 0.5 h in data set [1] (setting [4]) and in data set [1] (setting [5]) were 1.8 µM and 6.6 µM, respectively. Moreover, the Kp at 0.5 h in data set [1] (brain) was 0.27. The “body weight reduction of −20% or more” value in data set [2] is reported as “not observed”. The AUC(0-t) in data set [3] was 15 µM·h. The “Log 10 of total flux on Day 22 versus control group” value with NCI-N87-Luc (oral 25 mg/kg/day once a day) is reported as “statistically significantly lower”.
On to `C=CC(=O)N1C[C@H](n2c(C#CC3CC3)c(C(=O)N[C@H](C)c3ccccc3)c3c(N)ncnc32)C[C@@H]1C` [Example 11, 7-((3R,5S)-1-acryloyl-5-methylpyrrolidin-3-yl)-4-amino-6-(cyclopropylethynyl)-N—((R)-1-phenylethyl)-7H-pyrrolo[2,3-d]pyrimidine-5-carboxamide], for which the GI50 at Ba/F3-HER2insYVMA cells worked out at 0.029 µM. Besides, the figures for the concentration at 0.5 h in data set [1] (setting [4]) and in data set [1] (setting [5]) were 2.7 µM and 12 µM, respectively. In data set [1] (brain), the Kp at 0.5 h worked out at 0.23. In data set [2], the “body weight reduction of −20% or more” value was “not observed”. For the same molecule, in data set [3], the AUC(0-t) turned out to be 31 µM·h. Besides, the “Log 10 of total flux on Day 22 versus control group” value in the data set with NCI-N87-Luc (oral 25 mg/kg/day once a day) is on record as “statistically significantly lower”.
Regarding `C=CC(=O)N1C[C@H](n2c(C#CC(C)(C)C)c(C(=O)N[C@H](C)c3ccccc3)c3c(N)ncnc32)C[C@@H]1C` [Example 12, 7-((3R,5S)-1-acryloyl-5-methylpyrrolidin-3-yl)-4-amino-6-(3,3-dimethylbut-1-yn-1-yl)-N—((R)-1-phenylethyl)-7H-pyrrolo[2,3-d]pyrimidine-5-carboxamide], the GI50 at Ba/F3-HER2insYVMA cells was found to be 0.043 µM. Besides, the concentration at 0.5 h was determined as 3.2 µM in data set [1] (setting [4]) and 11 µM in data set [1] (setting [5]). The Kp at 0.5 h in data set [1] (brain) is 0.29. This molecule also registered an AUC(0-t) in data set [3] of 36 µM·h. The “Log 10 of total flux on Day 22 versus control group” value in the data set on NCI-N87-Luc (oral 50 mg/kg/day once a day) is “statistically significantly lower”.
Consider `C=CC(=O)N1C[C@H](n2c(C#CC3CC3)c(C(=O)N[C@H](C)c3ccccc3)c3c(N)ncnc32)C[C@@H]1COC` [Example 18, 7-((3R,5R)-1-acryloyl-5-(methoxymethyl)pyrrolidin-3-yl)-4-amino-6-(cyclopropylethynyl)-N—((R)-1-phenylethyl)-7H-pyrrolo[2,3-d]pyrimidine-5-carboxamide], for which, at Ba/F3-HER2insYVMA cells, the GI50 was determined as 0.014 µM. The concentration at 0.5 h in data set [1] (setting [4]) came to 1.6 µM; in data set [1] (setting [5]), 7.7 µM. Further, the Kp at 0.5 h in data set [1] (brain) worked out at 0.22. Besides, in data set [3], the AUC(0-t) worked out at 15 µM·h.
